Reference: patent US20020013314A1, “3,4-dihydro-2H-benzo[1,4]oxazine inhibitors of factor Xa” (priority 2000, published 2002)

Tests used:
factor Xa = factor Xa (Homo sapiens, UniProt P00742); experiment: factor Xa amidolytic assay (chromogenic substrate S-2765)
Procedure: (§1) In the assays for thrombin, prothrombinase and factor Xa, a synthetic chromogenic substrate is added to a solution containing test compound and the enzyme of interest and the residual catalytic activity of that enzyme is determined spectrophotometrically. The IC50 of a compound is determined from the substrate turnover. […] The factor Xa and thrombin assays are performed at room temperature, in 0.02 M Tris·HCl buffer, pH 7.5, containing 0.15 M NaCl.

prothrombinase complex = prothrombinase complex (Homo sapiens, UniProt P00742); experiment: prothrombinase inhibition assay (plasma free system, Chromozym TH); assay type: biochemical
Procedure: The prothrombinase inhibition assay is performed in a plasma free system with modifications to the method described by Sinha, U. et al., Thromb. […] Specifically, the activity of the prothrombinase complex is determined by measuring the time course of thrombin generation using the p-nitroanilide substrate Chromozym TH. […] Aliquots from the complex-inhibitor mixture are added to prothrombin (1 nM) and Chromozym TH (0.1 mM). […] Eight different concentrations of inhibitor are assayed in duplicate. A standard curve of thrombin generation by an equivalent amount of untreated complex is used for determination of percent inhibition.

thrombin = thrombin (Homo sapiens, UniProt P00734); experiment: thrombin amidolytic assay (Chromozym TH)
Procedure: as §1

[1] = Table 3, probe of regiochemistry

Sequence of prothrombinase complex (P00742 41-179 limits assumed): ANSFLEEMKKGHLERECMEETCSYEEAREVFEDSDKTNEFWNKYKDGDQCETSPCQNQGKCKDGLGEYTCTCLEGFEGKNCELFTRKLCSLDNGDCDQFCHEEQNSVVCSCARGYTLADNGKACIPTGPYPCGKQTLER
Sequence of prothrombinase complex (P00742 235-488 limits assumed): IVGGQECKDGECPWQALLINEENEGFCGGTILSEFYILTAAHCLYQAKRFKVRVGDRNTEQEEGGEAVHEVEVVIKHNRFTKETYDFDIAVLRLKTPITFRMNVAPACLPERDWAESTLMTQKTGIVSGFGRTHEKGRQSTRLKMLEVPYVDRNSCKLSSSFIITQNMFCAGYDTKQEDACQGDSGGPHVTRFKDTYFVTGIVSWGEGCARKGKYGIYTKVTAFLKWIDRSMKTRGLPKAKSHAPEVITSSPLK
Sequence of prothrombinase complex (P12259 29-737 partner limits assumed): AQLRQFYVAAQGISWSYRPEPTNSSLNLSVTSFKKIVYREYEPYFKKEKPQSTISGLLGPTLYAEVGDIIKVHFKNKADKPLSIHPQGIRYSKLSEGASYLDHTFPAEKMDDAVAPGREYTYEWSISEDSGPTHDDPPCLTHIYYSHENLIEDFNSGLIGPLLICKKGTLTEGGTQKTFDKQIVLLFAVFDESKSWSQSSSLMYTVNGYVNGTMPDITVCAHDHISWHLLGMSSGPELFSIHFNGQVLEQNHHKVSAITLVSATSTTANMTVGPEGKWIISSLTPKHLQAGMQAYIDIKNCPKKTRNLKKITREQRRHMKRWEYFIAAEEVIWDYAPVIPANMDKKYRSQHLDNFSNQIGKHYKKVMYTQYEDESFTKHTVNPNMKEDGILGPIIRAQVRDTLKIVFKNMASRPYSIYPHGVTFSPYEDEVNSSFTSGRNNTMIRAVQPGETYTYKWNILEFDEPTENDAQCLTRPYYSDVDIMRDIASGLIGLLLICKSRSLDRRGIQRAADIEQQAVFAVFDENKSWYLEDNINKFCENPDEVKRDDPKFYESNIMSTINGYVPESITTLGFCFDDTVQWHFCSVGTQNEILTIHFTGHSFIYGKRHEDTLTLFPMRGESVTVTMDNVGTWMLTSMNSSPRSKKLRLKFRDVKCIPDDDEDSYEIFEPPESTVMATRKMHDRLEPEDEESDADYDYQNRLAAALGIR
Sequence of prothrombinase complex (P12259 1574-2224 partner limits assumed): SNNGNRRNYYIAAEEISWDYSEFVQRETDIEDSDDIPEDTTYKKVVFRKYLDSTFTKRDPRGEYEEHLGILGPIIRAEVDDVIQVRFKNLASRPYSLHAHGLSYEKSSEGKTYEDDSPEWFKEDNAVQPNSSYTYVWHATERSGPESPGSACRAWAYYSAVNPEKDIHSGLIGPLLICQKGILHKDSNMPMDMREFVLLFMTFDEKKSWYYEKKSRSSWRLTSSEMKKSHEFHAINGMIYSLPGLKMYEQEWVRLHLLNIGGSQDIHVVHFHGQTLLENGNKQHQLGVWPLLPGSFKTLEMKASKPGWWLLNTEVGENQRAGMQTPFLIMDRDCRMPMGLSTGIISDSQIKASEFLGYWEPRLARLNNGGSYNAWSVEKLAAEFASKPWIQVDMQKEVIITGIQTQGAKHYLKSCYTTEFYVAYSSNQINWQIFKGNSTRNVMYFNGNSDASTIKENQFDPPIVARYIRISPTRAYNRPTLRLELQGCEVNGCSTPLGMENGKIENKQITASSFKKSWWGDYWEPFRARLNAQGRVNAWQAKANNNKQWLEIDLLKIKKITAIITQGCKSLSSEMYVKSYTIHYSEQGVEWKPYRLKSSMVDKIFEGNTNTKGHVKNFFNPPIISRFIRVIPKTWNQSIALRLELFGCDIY
Sequence of factor Xa (P00742 41-179 limits assumed): as the sequence (P00742 41-179 limits assumed) above
Sequence of factor Xa (P00742 235-488 limits assumed): as the sequence (P00742 235-488 limits assumed) above

SMILES	IC50 (factor Xa) [µM]	IC50 (prothrombinase complex; [1]) [nM]	IC50 (thrombin) [µM]	IC50 (prothrombinase complex; Table 4) [nM]	IC50 (prothrombinase complex; Table 5) [nM]	IC50 (prothrombinase complex; Table 6, monoamidine) [nM]
CC(=N)N1CCC(Oc2ccc3c(c2)OCC(=O)N3Cc2cccc(-c3cccc(C(=N)N)c3)c2)CC1 [Cmpd 23]	0.0376	214	11	–	–	–
CC(=N)N1CCC(Oc2ccc3c(c2)OCC(=O)N3Cc2ccc3ccc(C(=N)N)cc3c2)CC1 [Cmpd 24]	–	–	334	–	–	–
CC(=N)N1CCC(Oc2ccc3c(c2)N(Cc2cccc(-c4cccc(C(=N)N)c4)c2)C(=O)CO3)CC1 [Cmpd 25]	0.344	934	5.37	–	–	–
CC(=N)N1CCC(Oc2ccc3c(c2)N(Cc2ccc4ccc(C(=N)N)cc4c2)C(=O)CO3)CC1 [Cmpd 26]	0.191	352	81	–	–	–
CC(=N)N1CCC(Oc2ccc3c(c2)OCC(=O)N3Cc2cc(-c3cccc(C(=N)N)c3)no2)CC1 [Cmpd 27]	0.0524	–	250	159	–	–
CC(=N)N1CCC(Oc2ccc3c(c2)OCC(=O)N3Cc2cc3ccc(C(=N)N)cc3n2C)CC1 [Cmpd 28]	0.002	–	–	6.6	–	–
N=C(N)c1ccc(C(=O)Nc2ccc3c(c2)OCC(=O)N3Cc2ccc3ccc(C(=N)N)cc3c2)cc1 [Cmpd 31]	10.1	–	204	–	67500	–
N=C(N)c1ccc2ccc(CN3C(=O)COc4cc(NS(=O)(=O)c5ccccc5)ccc43)cc2c1 [Cmpd 32]	21.9	–	34.5	–	55200	–
COc1ccc(S(=O)(=O)Nc2ccc3c(c2)OCC(=O)N3Cc2ccc3ccc(C(=N)N)cc3c2)cc1 [Cmpd 33]	38.2	–	34.9	–	81000	–
N=C(N)c1ccc2ccc(CN3C(=O)COc4cc(NS(=O)(=O)c5cccc6ncccc56)ccc43)cc2c1 [Cmpd 34]	19.5	–	109	–	364000	–
N=C(N)c1ccc2ccc(CN3C(=O)COc4cc(NS(=O)(=O)c5ccc6cc(Br)ccc6c5)ccc43)cc2c1 [Cmpd 35]	268	–	83.7	–	98000	–
N=C(N)c1ccc2ccc(CN3C(=O)COc4ccc(-c5ccccc5S(N)(=O)=O)cc43)cc2c1 [Cmpd 36]	0.068	–	26.7	–	–	2000
N=C(N)c1cccc(-c2cccc(CN3C(=O)COc4ccc(-c5ccccc5S(N)(=O)=O)cc43)c2)c1 [Cmpd 37]	0.89	–	8.7	–	–	3000
Cc1cc(CN2C(=O)COc3cc(-c4ccccc4S(N)(=O)=O)ccc32)n(-c2cccc(C(=N)N)c2)n1 [Cmpd 38]	> 11	–	> 11	–	–	> 11000
